The values that follow come from patent US20150141381A1, “TETRACYCLINE COMPOUNDS HAVING TARGET THERAPEUTIC ACTIVITIES” (Paratek Pharmaceuticals, Inc., priority 2001, published 2015).

Read-outs that look alike come from different tables or passages of the source.

Test [1] has as its system S. aureus RN450. The experiment in a line: In Vitro Anti-Bacterial Activity Assay (MIC), gram positive. The note with it: for MIC: Staphylococcus aureus, RN450, 18 h. It counts as cell-based.
For test [2], the system named is E. coli mL308 225. The experiment in a line: In Vitro Anti-Bacterial Activity Assay (MIC), gram negative. It is filed as cell-based. The note with it: for MIC: Escherichia coli, ML308225, 18 h.
[3] abbreviates: MIC class, Table 3, read-out: Antibiotic Activity Gram +.
Setting [4] is: MIC class, Table 3, read-out: Antibiotic Activity Gram −.
The mark [5] stands for this setting: MIC class, Table 3 (Continued), read-out: Gram+ activity.
[6] abbreviates: MIC class, Table 3 (Continued), read-out: Gram− activity.
The mark [7] stands for this setting: gram positive bacteria, read-out: Antibiotic Activity Gram + (MIC).
The mark [8] stands for this setting: gram negative bacteria, read-out: Antibiotic Activity Gram − (MIC).

`CCc1cc(CNC(C)=O)c(O)c2c1C[C@H]1C[C@H]3C(N(C)C)C(O)=C(C(N)=O)C(=O)[C@@]3(O)C(O)=C1C2=O` (stereo partly drawn) [EM]: the MIC in test [1] (setting [3]) is under 4 µg/mL; in test [2] (setting [4]), over 4 µg/mL.
Regarding `CN(C)[C@@H]1C(O)=C(C(N)=O)C(=O)[C@@]2(O)C(O)=C3C(=O)c4c(O)ccc(-c5ccc(F)cc5F)c4C[C@H]3C[C@@H]12` [AB], the MIC is under 4 µg/mL in test [1] (setting [3]) and over 4 µg/mL in test [2] (setting [4]).
As to `CN(C)[C@@H]1C(O)=C(C(N)=O)C(=O)[C@@]2(O)C(O)=C3C(=O)c4c(O)ccc(C#CC5(O)CCCCC5)c4C[C@H]3C[C@@H]12`, the MIC in test [1] (setting [5]) and in test [2] (setting [6]) was under 4 µg/mL throughout.
With `CN(C)c1cc(CN2CCCCCC2)c(O)c2c1C[C@H]1C[C@H]3[C@H](N(C)C)C(O)=C(C(N)=O)C(=O)[C@@]3(O)C(O)=C1C2=O`, the MIC in test [1] (setting [7]) and in test [2] (setting [8]) was under 4 µg/mL in each case.
As to `C[C@H]1c2ccc(/C=C\C(=O)NC(C)(C)C)c(O)c2C(=O)C2=C(O)[C@]3(O)C(=O)C(C(N)=O)=C(O)[C@@H](N(C)C)[C@@H]3[C@@H](O)[C@@H]21` [CU], the MIC in test [1] (setting [3]) and in test [2] (setting [4]) was over 4 µg/mL in each case.
As for `CN(C)[C@@H]1C(O)=C(C(N)=O)C(=O)[C@@]2(O)C(O)=C3C(=O)c4c(O)ccc(-c5ccc(C(=O)Cl)c6ccccc56)c4C[C@H]3C[C@@H]12`, the MIC was under 4 µg/mL in test [1] (setting [7]) and over 4 µg/mL in test [2] (setting [8]).
In the case of `CN(C)c1ccc2c(c1O)C(=O)C1=C(O)[C@]3(O)C(=O)C(C(N)=O)=C(O)[C@@H](N(C)C)[C@@H]3C[C@@H]1C2` [JX], the MIC in test [1] (setting [3]) is under 4 µg/mL; in test [2] (setting [4]), over 4 µg/mL.
Regarding `CNCC#Cc1ccc(O)c2c1C[C@H]1C[C@H]3[C@H](N(C)C)C(O)=C(C(N)=O)C(=O)[C@@]3(O)C(O)=C1C2=O` [KR], the MIC in test [1] (setting [3]) and in test [2] (setting [4]) was under 4 µg/mL each time.
Regarding `COC(=O)C#Cc1cc(N(C)C)c2c(c1O)C(=O)C1=C(O)[C@]3(O)C(=O)C(C(N)=O)=C(O)C(N(C)C)[C@@H]3C[C@@H]1C2` (stereo partly drawn) [CY], the results for the MIC in test [1] (setting [3]) and in test [2] (setting [4]) were under 4 µg/mL and over 4 µg/mL, respectively.
As to `CN(C)[C@@H]1C(O)=C(C(N)=O)C(=O)[C@@]2(O)C(O)=C3C(=O)c4c(O)ccc(Cl)c4[C@](C)(O)[C@H]3C[C@@H]12`, the results for the MIC in test [1] (setting [7]) and in test [2] (setting [8]) were under 4 µg/mL and over 4 µg/mL, respectively.
For `C[C@H]1c2c(-c3ccccc3)cc(-c3ccccc3)c(O)c2C(=O)C2=C(O)[C@]3(O)C(=O)C(C(N)=O)=C(O)[C@@H](N(C)C)[C@@H]3[C@@H](O)[C@@H]21`, in that order: under 4 µg/mL and under 4 µg/mL.
Turning to `COc1cc(-c2ccc(O)c3c2C[C@H]2C[C@H]4[C@H](N(C)C)C(O)=C(C(N)=O)C(=O)[C@@]4(O)C(O)=C2C3=O)cc(OC)c1OC` [GE], the MIC was under 4 µg/mL in test [1] (setting [3]) and over 4 µg/mL in test [2] (setting [4]).
For `CN(C)c1cc(NCc2cccnc2)c(O)c2c1C[C@H]1C[C@H]3C(N(C)C)C(O)=C(C(N)=O)C(=O)[C@@]3(O)C(O)=C1C2=O` (stereo partly drawn) [FA], in that order: over 4 µg/mL and over 4 µg/mL.
For `CN(C)c1cc(-c2ccc(OC(F)(F)F)cc2)c(O)c2c1C[C@H]1C[C@H]3[C@H](N(C)C)C(O)=C(C(N)=O)C(=O)[C@@]3(O)C(O)=C1C2=O` [EK], in that order: under 4 µg/mL and over 4 µg/mL.
Regarding `Cc1ccc(-c2ccc(O)c3c2C[C@H]2C[C@H]4[C@H](N(C)C)C(O)=C(C(N)=O)C(=O)[C@@]4(O)C(O)=C2C3=O)nc1`, the MIC in test [1] (setting [7]) and in test [2] (setting [8]) was under 4 µg/mL each time.
Turning to `CN(C)c1cc(CNc2nc(C(F)(F)F)co2)c(O)c2c1C[C@H]1C[C@H]3[C@H](N(C)C)C(O)=C(C(N)=O)C(=O)[C@@]3(O)C(O)=C1C2=O`, the MIC in test [1] (setting [7]) and in test [2] (setting [8]) was under 4 µg/mL each time.
As to `CCc1ccnc(-c2ccc(O)c3c2C[C@H]2C[C@H]4[C@H](N(C)C)C(O)=C(C(N)=O)C(=O)[C@@]4(O)C(O)=C2C3=O)c1` [NZ], the MIC in test [1] (setting [3]) and in test [2] (setting [4]) was under 4 µg/mL throughout.
Take `CN(C)c1cc(CN2CCC(C(F)(F)F)CC2)c(O)c2c1C[C@H]1C[C@H]3[C@H](N(C)C)C(O)=C(C(N)=O)C(=O)[C@@]3(O)C(O)=C1C2=O`: the MIC in test [1] (setting [7]) and in test [2] (setting [8]) was under 4 µg/mL in each case.
In the case of `CC(CF)N(C)Cc1cc(N(C)C)c2c(c1O)C(=O)C1=C(O)[C@]3(O)C(=O)C(C(N)=O)=C(O)[C@@H](N(C)C)[C@@H]3C[C@@H]1C2` (stereo partly drawn), the MIC in test [1] (read-out: Antibiotic Activity Gram + (MIC)) was under 4 µg/mL; in test [2] (read-out: Antibiotic Activity Gram − (MIC)), over 4 µg/mL.
On to `CN(C)C1C(O)=C(C(N)=O)C(=O)[C@@]2(O)C(O)=C3C(=O)c4c(O)ccc(-c5ccc(CN6CCCC6)cc5)c4C[C@H]3C[C@@H]12` (stereo partly drawn) [BT], for which the MIC in test [1] (setting [3]) and in test [2] (setting [4]) was under 4 µg/mL in each case.
Turning to `CCOP(=O)(OCC)C(Nc1ccccc1)c1ccc(-c2cc(N(C)C)c3c(c2O)C(=O)C2=C(O)[C@]4(O)C(=O)C(C(N)=O)=C(O)C(N(C)C)[C@@H]4C[C@@H]2C3)cc1` (stereo partly drawn) [DS], the figures for the MIC in test [1] (read-out: Antibiotic Activity Gram +) and in test [2] (read-out: Antibiotic Activity Gram −) were under 4 µg/mL and over 4 µg/mL, respectively.
As for `CN(C)Cc1ccc(-c2ccc(O)c3c2C[C@H]2C[C@H]4C(N(C)C)C(O)=C(C(N)=O)C(=O)[C@@]4(O)C(O)=C2C3=O)cc1` (stereo partly drawn), the MIC in test [1] (setting [5]) and in test [2] (setting [6]) was under 4 µg/mL in each case.
In the case of `C[C@H]1c2c(N)cc(I)c(O)c2C(=O)C2=C(O)[C@]3(O)C(=O)C(C(N)=O)=C(O)[C@@H](N(C)C)[C@@H]3[C@@H](O)[C@@H]21`, the MIC in test [1] (setting [7]) and in test [2] (setting [8]) was over 4 µg/mL throughout.
For the compound `CN(C)C(=O)c1cccc(-c2ccc(O)c3c2C[C@H]2C[C@H]4[C@H](N(C)C)C(O)=C(C(N)=O)C(=O)[C@@]4(O)C(O)=C2C3=O)c1` [AD], the results for the MIC in test [1] (setting [3]) and in test [2] (setting [4]) were under 4 µg/mL and over 4 µg/mL, respectively.
For the compound `C#Cc1cc(CNC(=O)N2CCOCC2)c2c(c1O)C(=O)C1=C(O)[C@]3(O)C(=O)C(C(N)=O)=C(O)[C@@H](N(C)C)[C@@H]3C[C@@H]1C2`, the MIC in test [1] (setting [7]) and in test [2] (setting [8]) was over 4 µg/mL each time.
Take `CN(C)c1cc(CN2CCc3ccccc3C2)c(O)c2c1C[C@H]1C[C@H]3[C@H](N(C)C)C(O)=C(C(N)=O)C(=O)[C@@]3(O)C(O)=C1C2=O`: the MIC in test [1] (setting [7]) and in test [2] (setting [8]) was under 4 µg/mL throughout.
As to `CN(C)c1cc(CN2CCC3(CCCC3)CC2)c(O)c2c1C[C@H]1C[C@H]3[C@H](N(C)C)C(O)=C(C(N)=O)C(=O)[C@@]3(O)C(O)=C1C2=O`, the MIC in test [1] (setting [7]) and in test [2] (setting [8]) was under 4 µg/mL each time.
On to `CN(C)[C@@H]1C(O)=C(C(N)=O)C(=O)[C@@]2(O)C(O)=C3C(=O)c4c(O)c(N)cc(-c5ccccn5)c4C[C@H]3C[C@@H]12`, for which the values for the MIC in test [1] (setting [7]) and in test [2] (setting [8]) were under 4 µg/mL and over 4 µg/mL, respectively.
Consider `Cc1ccc(/C=C/c2ccc(O)c3c2C[C@H]2C[C@H]4[C@H](N(C)C)C(O)=C(C(N)=O)C(=O)[C@@]4(O)C(O)=C2C3=O)cc1` [drawing 3339], for which the MIC in test [1] (setting [5]) and in test [2] (setting [6]) was under 4 µg/mL each time.
For the compound `CN(C)Cc1ccc(-c2cc(N(C)C)c3c(c2O)C(=O)C2=C(O)[C@]4(O)C(=O)C(C(N)=O)=C(O)[C@@H](N(C)C)[C@@H]4C[C@@H]2C3)o1` [LI], the values for the MIC in test [1] (setting [3]) and in test [2] (setting [4]) were under 4 µg/mL and over 4 µg/mL, respectively.
Consider `CCN(CC)c1ccc(O)c2c1C[C@H]1C[C@H]3[C@H](N(C)C)C(O)=C(C(N)=O)C(=O)[C@@]3(O)C(O)=C1C2=O`, for which the MIC in test [1] (setting [7]) and in test [2] (setting [8]) was under 4 µg/mL throughout.
Take `CCc1cc(CN2CCC(F)(F)CC2)c(O)c2c1C[C@H]1C[C@H]3[C@H](N(C)C)C(O)=C(C(N)=O)C(=O)[C@@]3(O)C(O)=C1C2=O` [drawing 3696]: the “Antibiotic Activity Gram + (MIC)” value in test [1] (gram positive bacteria) is on record as “** (compounds with MIC less than or equal to 4 μg/ml are indicated with **)”. Besides, in test [2] (gram negative bacteria), the “Antibiotic Activity Gram − (MIC)” value is reported as “** (compounds with MIC less than or equal to 4 μg/ml are indicated with **)”.
Turning to `CCN(CC)Cc1cc(N(C)C)c2c(c1O)C(=O)C1=C(O)[C@]3(O)C(=O)C(C(N)=O)=C(O)[C@@H](N(C)C)[C@@H]3C[C@@H]1C2`, the MIC in test [1] (setting [7]) was under 4 µg/mL; in test [2] (setting [8]), over 4 µg/mL.
For `C[C@H]1c2ccc(-c3ccc(N(C)C)cc3)c(O)c2C(=O)C2=C(O)[C@]3(O)C(=O)C(C(N)=O)=C(O)[C@@H](N(C)C)[C@@H]3[C@@H](O)[C@@H]21`, in that order: under 4 µg/mL and under 4 µg/mL.
Regarding `CN(C)[C@@H]1C(O)=C(C(N)=O)C(=O)[C@@]2(O)C(O)=C3C(=O)c4c(O)ccc(CNC(=O)C(C)(C)C)c4C[C@H]3C[C@@H]12`, the MIC in test [1] (setting [7]) was under 4 µg/mL; in test [2] (setting [8]), over 4 µg/mL.
Take `CN(C)[C@@H]1C(O)=C(C(N)=O)C(=O)[C@@]2(O)C(O)=C3C(=O)c4c(ccc(NC5CCNCC5)c4O)C[C@H]3C[C@@H]12` [LE]: the MIC in test [1] (setting [3]) and in test [2] (setting [4]) was over 4 µg/mL each time.
In the case of `CN(C)[C@@H]1C(O)=C(C(N)=O)C(=O)[C@@]2(O)C(O)=C3C(=O)c4c(O)ccc(-c5ccc(F)c(F)c5)c4C[C@H]3C[C@@H]12`, the MIC in test [1] (setting [7]) and in test [2] (setting [8]) was under 4 µg/mL in each case.
For the compound `CN(C)c1cc(CN2CCCC2)c(O)c2c1C[C@H]1C[C@H]3[C@H](N(C)C)C(O)=C(C(N)=O)C(=O)[C@@]3(O)C(O)=C1C2=O`, the MIC in test [1] (setting [7]) was under 4 µg/mL; in test [2] (setting [8]), over 4 µg/mL.
Consider `CCCN(C)Cc1cc(N(C)C)c2c(c1O)C(=O)C1=C(O)[C@]3(O)C(=O)C(C(N)=O)=C(O)[C@@H](N(C)C)[C@@H]3C[C@@H]1C2`, for which the results for the MIC in test [1] (setting [7]) and in test [2] (setting [8]) were under 4 µg/mL and over 4 µg/mL, respectively.
